Reference: patent publication US7129271B2, “Compounds for pest control and methods for their use” (The United States of America as represented by the …, priority 2000, dated 2006)
Converted amounts (≈) assume the structure as drawn. Read-outs that look alike come from different tables or passages of the source.

Experiments:
[1] = test system: ticks, fleas, and mosquitoes; test: Residual activity, overall statements for ticks, fleas and mosquitoes (Example 9); conditions: 1 to 4 weeks after treatment
X. cheopis adults = test: Flea bioassay, treated vials (Example 9); assay type: in vivo; conditions: 24 h exposure, 95% CI in parentheses
Procedure: Flea Colonies. Adult X. cheopis fleas (1–3 wk old) were obtained from a colony founded more than eight years ago using adults received from Tom Schwan, Rocky Mountain Laboratories, Hamilton, Mont. The area from which these original adult fleas were obtained, and the resulting colony, have no known histories of pesticide exposure.
(§1) Tick and Flea Bioassays. Concentrations of the compounds were prepared by 2-fold serial dilutions of a 0.5% (wt:vol) solution of the extracts in acetone. […] A control treated with acetone only was run with each series. Tick and flea susceptibility was evaluated using a modified disposable pipette method. See, Barnard, D. R., et al., J. Econ. Entomol.
(§2) The inner surface of 2-dram friction cap vials were treated with the compound/acetone solution, or acetone only as a control, and left to air-dry overnight. Three to 4 holes were made in the plastic cap to allow for air exchange. Nymphal ticks and adult fleas were then placed directly into the vials using forceps. Vials containing ticks or fleas were placed in desiccators for 24 h at 21° C. and 90% RH. Morbidity and mortality was recorded at 1, 2, 4, 8, and 24 h after initial exposure.

[2] = test system: adult I. scapularis ticks; test: Treated-vial biocidal screening, residual challenge (Example 2); assay type: in vivo, Ixodes scapularis; conditions: treated vials sat 4 wk; arthropods added for final 24 h
Procedure: (§3) Samples of the compounds listed below Were obtained from Dr. Karchesy, a co-inventor, and screened for biocidal activities against nymphal Ixodes scapularis. In this example, 2% acetone solutions (wt./vol.) of the compounds were applied to inner surfaces of 2-dram friction cap vials. Vials and caps were treated then allowed to dry for a minimum of 4 hours before placing 10 nymphs in each container. These same vials were used to challenge additional nymphs and adult I. scapularis ticks and adult Xenopsylla cheopis fleas through five weeks to observe any possible residual activity.
(§4) Numbers in parentheses refer to length of treatment in terms of hours (h) or weeks (wk). Data is presented in terms of number killed/number tested. For test periods longer than 24 hours, the treated vials were allowed to sit for the stated period after drying (72 h, 4 wk, or 5 wk) and each group of arthropods was added to the vials for the final 24 h of the test period.

Ae. aegypti adults = test: Mosquito bottle bioassay (Example 9); assay type: in vivo; conditions: 24 h exposure, 95% CI in parentheses
Procedure: Mosquito Colonies. Aedes aegypti adult mosquitoes were obtained from an existing colony at the Centers for Disease Control and Prevention (CDC), Division of Vector-Borne Infectious Diseases (DVBID), Fort Collins, Colo. This colony has been maintained for over fifteen years with no known history of exposure to pesticides. Mosquitoes were reared at 28° C., 85% RH, and a 14:10 h (light:dark) cycle. Larvae were grown in de-ionized water and fed ground liver powder solution ad libitum. Fourth instars were removed and placed in emergence cages, and adults were fed a 2% sucrose solution until assayed. Adults were exposed to test products at 4–7 d after emergence.
(§5) Mosquit Bioassay. Adult mosquitoes were tested using the bottle bioassay method of Brogden, W. G., and McAllister, J. C., J. Am. Mosq. Control Assoc. 14:159–64 (1998), with minor modifications. Natural product extracts were two-fold serially diluted for a total of 8 concentrations ranging from 0.002% to 0.25% in 1.5 ml of acetone. Individual dilutions were added to 250 ml Wheaton glass bottles and capped. Bottles were manipulated to evenly coat all inner surfaces. The caps were removed and bottles were allowed to air-dry overnight. Once bottles were completely dry, 10–50 adult mosquitoes were aspirated into the bottles. Mosquitoes were held in the bottles for 24 h at 23° C. and 85% RH. Morbidity and mortality were recorded at 15, 30, 45, and 60 min and 24 hour intervals. One bottle for each replicate was treated with acetone only and served as a control. The dose-mortality data was evaluated with probit analysis, using the LdP Line software, to determine LC50 and LC90 values.

Aedes aegypti adults = test: Residual activity, treated bottles aged before loading (Example 9); assay type: in vivo
Procedure: as §5

I. scapularis nymphs = test: Tick bioassay, modified disposable pipette method, treated vials (Example 9); assay type: in vivo, Ixodes scapularis
Procedure: Tick Colonies. […] There was no known pesticide used at this location. Ticks were maintained at 21° C., 90% RH, and received a 16:8 h (light:dark) cycle as described in […]. Med. […] Tick and Flea Bioassays. […] A control treated with acetone only was run with each series. Tick and flea susceptibility was evaluated using a modified disposable pipette method. See, Barnard, D. R., et al., J. Econ. […] Three to 4 holes were made in the plastic cap to allow for air exchange. Nymphal ticks and adult fleas were then placed directly into the vials using forceps. Vials containing ticks or fleas were placed in desiccators for 24 h at 21° C. and 90% RH. […] For each time point, if ticks were incapable of movement, maintaining normal posture, leg coordination, ability to right themselves, or any signs of life, they were considered moribund or dead.

[3] = test system: adult Xenopsylla cheopis fleas; test: Treated-vial biocidal screening, residual challenge (Example 2); assay type: in vivo; conditions: treated vials sat 5 wk; arthropods added for final 24 h
Procedure: as §3, §4

[4] = test system: ticks, fleas, formicids and termites; test: Persistence of biocidal activity, vials treated with 2% solutions (Example 5); assay type: in vivo
Procedure: as §3
Persistence of biocidal activity was determined for nootkatone and valencene-11,12-epoxide by using the vials as treated with the 2% solutions of Example 2. […] At 11 weeks, the biocidal activity began to dissipate below the 100% mortality level.

Ixodes scapularis nymphs = test: Residual activity, treated vials aged before loading (Example 9); assay type: in vivo
Procedure: as §1, with “acetone. The approximate toxicity of individual compounds was determined with a total of 8 doses ranging from 0.002% to 0.25%.” for “acetone.”, “Entomol. 74:466–69 (1981).” for “Entomol.”
as §2, with “Groups of 10 nymphal I. scapularis and X. cheopis fleas were used in all tests, resulting in a total of 5,240 nymphs and 4,860 fleas exposed to the compounds. The” for “The”

[5] = test system: Xenopsylla cheopis adults; test: as above; assay type: in vivo
Procedure: as §1, with “acetone. The approximate toxicity of individual compounds was determined with a total of 8 doses ranging from 0.002% to 0.25%.” for “acetone.”, “Entomol. 74:466–69 (1981).” for “Entomol.”
as §2, with “Groups of 10 nymphal I. scapularis and X. cheopis fleas were used in all tests, resulting in a total of 5,240 nymphs and 4,860 fleas exposed to the compounds. The” for “The”

nymphal I. scapularis = test: Baseline dose-mortality, method of Maupin and Piesman 1994 (Example 7); assay type: in vivo; conditions: nymphal ticks
Source text: Baseline dose-mortalities were established for nymphal I. scapularis for nootkatone and valencene-11,12-epoxide using the method described in Maupin, G. O., and Piesman, J., J. Med. Entomol., 31:319–21 (1994).
A comparison of relative potency was made with published data for carbaryl and permethrin (Maupin and Piesman, 1994) and Alaska yellow cedar essential oil (Panella et al., J. Med. Entomol. 34:340–45 (1997) is presented in Table 6.

[6] = test system: nymphal Ixodes scapularis; test: Treated-vial biocidal screening, 2% acetone solutions (Example 2); assay type: in vivo; conditions: for I. scapularis nymphs (24 h), number killed/number tested: 2% acetone solution (wt./vol.) dried in vials; for I. scapularis nymphs (72 h), number killed/number tested: treated vials sat 72 h, arthropods added for final 24 h
Procedure: as §3, §4

[7] = test system: I. scapularis nymphs, X. cheopis adults, and Ae. aegypti adults; test: Initial screening against all three arthropods (Example 9); assay type: in vivo; conditions: 24 hours exposure; ticks, fleas, mosquitoes
Procedure: Valencene-13-aldehyde was prepared by oxidation of valencene with SeO2. […] Commercial samples of nootkatone for comparison were obtained from Bedoukian Research, Inc., Danbury, Conn. (semi-synthetic crystalline) and Frutarom, Inc. N.J. (from grapefruit oil). […] The compounds identified by an asterisk—nos.

Culex p. pipiens = test: Mosquito susceptibility, serial dilutions (Example 8); conditions: in vivo
[8] = Aedes aegypti, 24 h, read-out: LC50
[9] = residual activity at 1 week after treatment
[10] = residual activity at 2 weeks after treatment
[11] = residual activity at 4 weeks after treatment
[12] = 24 h exposure, 95% CI in parentheses

SMILES	residual activity (in words) [1]	LC50 (X. cheopis adults)	I. scapularis adults (4 wk), number killed/number tested [2]	LC50 (Ae. aegypti adults; [8])	LC50 (Aedes aegypti adults; [9])	LC90 (Aedes aegypti adults; [9])	LC50 (Aedes aegypti adults; [10])	LC90 (Aedes aegypti adults; [10])	LC50 (Aedes aegypti adults; [11])	LC90 (Aedes aegypti adults; [11])	LC50 (I. scapularis nymphs; [12])	X. cheopis adults (5 wk), number killed/number tested [3]	LC50 (Ixodes scapularis nymphs; [9])	LC90 (Ixodes scapularis nymphs; [9])	LC50 (Ixodes scapularis nymphs; [10])	LC90 (Ixodes scapularis nymphs; [10])	LC50 (Ixodes scapularis nymphs; [11])	LC90 (Ixodes scapularis nymphs; [11])	LC50 [5, 9]	LC90 [5, 9]	further results
C=C(C)[C@@H]1CCC2=CC(=O)C[C@@H](C)[C@]2(C)C1 [Compound 7, Nootkatone]	considerable biological activity	0.0083 (0.0064–0.01) percent concentration, wt:vol	5/5	57 µg/mL (≈ 261 µM)	0.02 (0.014–0.029) percent concentration, wt:vol	0.054 (0.041–0.105) percent concentration, wt:vol	0.019 (0.016–0.022) percent concentration, wt:vol	0.046 (0.037–0.061) percent concentration, wt:vol	0.013 (0.011–0.015) percent concentration, wt:vol	0.038 (0.031–0.051) percent concentration, wt:vol	0.0029 (0.0025–0.0034) percent concentration, wt:vol	5/5	0.023 percent concentration, wt:vol	0.13 percent concentration, wt:vol	0.026 (0.018–0.039) percent concentration, wt:vol	0.168 (0.094–0.448) percent concentration, wt:vol	0.026 (0.018–0.039) percent concentration, wt:vol	0.164 (0.093–0.429) percent concentration, wt:vol	0.016 (0.012–0.02) percent concentration, wt:vol	0.05 (0.036–0.081) percent concentration, wt:vol	mortality ([4]; 24 hour exposure at each test through 10 weeks, each group of arthropods): 100%; time at which biocidal activity began to dissipate below the 100% mortality level ([4]; vials treated with 2% solutions): 11 weeks; LC50 [5, 10]: 0.031 percent concentration, wt:vol; LC90 [5, 10]: 0.134 percent concentration, wt:vol; LC50 [5, 11]: 0.031 percent concentration, wt:vol; more effective than essential oil of Alaska yellow cedar (nymphal I. scapularis): about 98%; potency relative to essential oil of Alaska yellow cedar (nymphal I. scapularis): approximately 50 times; I. scapularis nymphs (24 h), number killed/number tested [6]: 10/10; I. scapularis nymphs (72 h), number killed/number tested [6]: 5/5
CC1=CCC2C(C1)C2(C)C (stereo not drawn) [Compound 1, 3-Carene]	–	–	–	–	–	–	–	–	–	–	–	–	–	–	–	–	–	–	–	–	pesticidal activity in initial screening [7]: no pesticidal activity
C=C(C)C1CC=C2C=CCC(C)C2(C)C1 (stereo not drawn) [Compound 6, Nootkatene]	nearly inactive	0.017 (0.012–0.024) percent concentration, wt:vol	0/5	–	0.132 (0.096–0.236) percent concentration, wt:vol	0.659 (0.329–2.855) percent concentration, wt:vol	–	–	–	–	0.011 (0.0086–0.014) percent concentration, wt:vol	0/5	2.062 percent concentration, wt:vol	524.656 percent concentration, wt:vol	–	–	–	–	–	–	residual activity (in words) ([1]; listed as compound 6): did not demonstrate any residual activity after one week; LC90 (X. cheopis adults): 0.075 (0.049–0.151) percent concentration, wt:vol; LC50 (X. cheopis adults; listed as compound 6): 0.017 percent concentration, wt:vol; LC50 (Ae. aegypti adults): 0.027 percent concentration, wt:vol; LC90 (Ae. aegypti adults): 0.059 percent concentration, wt:vol; LC90 (I. scapularis nymphs; [12]): 0.06 (0.043–0.098) percent concentration, wt:vol; LC50 (I. scapularis nymphs; 24 h exposure, 95% CI in parentheses, listed as compound 6): 0.011 percent concentration, wt:vol; I. scapularis nymphs (24 h), number killed/number tested [6]: 10/10; I. scapularis nymphs (72 h), number killed/number tested [6]: 4/5
C=C(CO)C1CCC2=CCC[C@@H](C)[C@]2(C)C1 (stereo partly drawn) [Compound 10, 13-hydroxy-valencene]	considerable biological activity	–	–	34 µg/mL (≈ 154 µM)	0.024 (0.02–0.028) percent concentration, wt:vol	0.058 (0.046–0.081) percent concentration, wt:vol	0.014 (0.012–0.016) percent concentration, wt:vol	0.021 (0.019–0.027) percent concentration, wt:vol	0.013 (0.0089–0.017) percent concentration, wt:vol	0.04 (0.029–0.074) percent concentration, wt:vol	–	–	0.0071 (0.0055–0.0091) percent concentration, wt:vol	0.019 (0.014–0.031) percent concentration, wt:vol	0.0083 (0.0057–0.011) percent concentration, wt:vol	0.044 (0.029–0.081) percent concentration, wt:vol	0.031 percent concentration, wt:vol	0.303 percent concentration, wt:vol	0.03 (0.022–0.041) percent concentration, wt:vol	0.113 (0.074–0.226) percent concentration, wt:vol	LC50 (X. cheopis adults; Xenopsylla cheopis, 24 h, read-out: LC50): 83 µg/mL (≈ 377 µM); LC90 (X. cheopis adults; Xenopsylla cheopis, 24 h, read-out: LC90): 210 µg/mL (≈ 953 µM); EC90 (Ae. aegypti adults; Aedes aegypti, 24 h, read-out: LC90 (the source's name)): 140 µg/mL (≈ 635 µM); LC50 (I. scapularis nymphs; Ixodes scapularis, 24 h): 51 µg/mL (≈ 231 µM); LC90 (I. scapularis nymphs; Ixodes scapularis, 24 h, 24 h exposure, 95% CI in parentheses, read-out: LC90): 160 µg/mL (≈ 726 µM); LC50 [5, 10]: 0.039 (0.029–0.053) percent concentration, wt:vol; LC90 [5, 10]: 0.131 (0.087–0.268) percent concentration, wt:vol; C. pipiens LD50 (Culex p. pipiens): < 4.5×10^−3
